Molecular target: PAS domain-containing serine/threonine-protein kinase (Homo sapiens, UniProt Q96RG2)
Test: PAS Kinase FRET Assay: The aim of the FRET assay is to determine the inhibition potential of test compounds on targeted kinase. This assay platform provides a homogenous screening method for measuring kinase activity by quantitating the amount of phospho-substrate in solution following a kinase reaction.In the presence of kinase and ATP, the Ulight-peptide is phosphorylated and captured by an anti-phospho-substrate antibody, which brings the Eu chelate donor and Ulight acceptor dyes into close proximity. Upon excitation at 340 nm, the Eu chelate transfers its energy to the Ulight dye, resulting in a fluorescent light emission at 665 nm.Titration of kinase at 1 mM ATP was achieved via the following protocol. After making serial three-fold dilutions of PASK (Invitrogen) in reaction buffer across the plate; 5 μl of kinase dilution and 5 μl substrate/ATP mix were added to the wells of the white Optiplate-384 (PerkinElmer). The contents of the plate were and incubated at RT for 1 h. The reaction was stopped by adding 5 μl of stop solution to each test well followed by mixing and incubation at RT for 10 minutes. 5 μl of detection mix (detection antibody diluted in detection buffer) was added; the contents of the plate were mixed and then incubated in the dark for 1 hour at RT. The signal was recorded at TR-FRET mode (665 nm/615 nm). The results were graphed to calculate the EC50. […]

PAS domain-containing serine/threonine-protein kinase, sequence (Q96RG2 whole entry, the tested form may be a part): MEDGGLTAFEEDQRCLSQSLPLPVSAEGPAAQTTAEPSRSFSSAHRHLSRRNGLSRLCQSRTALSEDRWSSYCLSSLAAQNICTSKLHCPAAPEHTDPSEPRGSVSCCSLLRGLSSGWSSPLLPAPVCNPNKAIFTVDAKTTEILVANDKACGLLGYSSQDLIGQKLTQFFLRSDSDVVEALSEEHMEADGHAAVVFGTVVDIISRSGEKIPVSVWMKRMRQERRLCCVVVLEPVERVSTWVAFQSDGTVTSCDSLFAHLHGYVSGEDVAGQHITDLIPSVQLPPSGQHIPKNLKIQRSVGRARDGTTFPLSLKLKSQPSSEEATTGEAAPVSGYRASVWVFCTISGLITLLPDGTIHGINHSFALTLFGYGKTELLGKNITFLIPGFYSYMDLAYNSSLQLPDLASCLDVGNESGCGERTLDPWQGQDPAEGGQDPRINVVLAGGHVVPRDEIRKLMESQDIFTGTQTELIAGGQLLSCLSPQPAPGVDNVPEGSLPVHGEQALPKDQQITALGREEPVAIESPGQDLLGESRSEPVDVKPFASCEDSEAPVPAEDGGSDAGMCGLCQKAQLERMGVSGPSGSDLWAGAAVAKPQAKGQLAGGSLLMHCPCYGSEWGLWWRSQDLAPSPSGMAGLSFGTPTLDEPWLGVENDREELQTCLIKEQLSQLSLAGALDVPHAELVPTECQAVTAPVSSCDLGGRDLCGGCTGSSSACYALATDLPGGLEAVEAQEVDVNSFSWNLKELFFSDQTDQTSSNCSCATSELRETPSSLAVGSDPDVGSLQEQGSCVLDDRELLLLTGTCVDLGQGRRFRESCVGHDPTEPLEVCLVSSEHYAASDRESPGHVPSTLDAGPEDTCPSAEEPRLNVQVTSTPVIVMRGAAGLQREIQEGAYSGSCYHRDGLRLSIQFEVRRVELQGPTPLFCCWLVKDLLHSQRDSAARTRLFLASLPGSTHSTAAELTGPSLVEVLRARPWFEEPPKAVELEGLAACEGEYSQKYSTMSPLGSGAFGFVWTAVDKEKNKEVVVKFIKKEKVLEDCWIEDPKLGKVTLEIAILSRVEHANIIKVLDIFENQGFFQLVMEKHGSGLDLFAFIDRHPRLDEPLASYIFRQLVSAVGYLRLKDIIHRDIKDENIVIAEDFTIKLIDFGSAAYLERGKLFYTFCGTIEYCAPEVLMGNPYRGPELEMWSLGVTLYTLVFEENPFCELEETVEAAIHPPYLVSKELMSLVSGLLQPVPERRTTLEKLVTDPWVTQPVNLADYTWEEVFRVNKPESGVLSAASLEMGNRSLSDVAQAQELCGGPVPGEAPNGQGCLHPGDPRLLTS

Work on `CN(c1nc2cc(C(=O)O)ccc2nc1-c1ccc(F)cc1)C1CCNCC1` yielded an IC50 of less than 10 µM.
